# According to patent publication US7282484B2, “Anti-tumor agents” (Point Therapeutics, Inc., priority 1999, dated 2007):
# Several values for one entry are separate records, joined by “and”; a condition that tells them apart may be missing. Equal entries are not always repeated.
# How the values were obtained:
# [1] = test system: DPPIV-like activity of Fischer D+ and D− rat BM stromal cells; experiment: DPPIV-like activity assay on rat bone marrow stromal cells; format: cell-based
# Experimental: (§1) Cell Source. 8-12 week old female wild type CD26 positive (D^+) and CD26 negative (D^−) Fischer rat (Charles River Labs, Japan) bone marrow.
# (§2) Bone marrow preparation. Bone marrow was flushed from each femur, tibia and fibula with Dulbecco's phosphate buffered saline (D-PBS) using a 21-gauge needle and a 10 ml syringe. After removal, the bone marrow was immediately aspirated through the needle to make a single cell suspension. The cells were washed twice with sterile PBS and resuspended in MyeloCult H5100 long-term culture (LTC) media, available from Stem Cell Technologies, and supplemented with freshly diluted 10^−6 M hydrocortisone, available from Sigma.
# Establishment of adherent bone marrow stromal cell cultures. […]
# DPPIV-like activity assay. […] The reaction was stopped by removing the substrate solution from each well and measured in the fluorescence spectrophotometer or stored −20° C. Activity was measured using an excitation wavelength of 400 nm and emission wavelength of 505 nm.
# Bone marrow stromal cells were established from the long bones of Fischer D^+ and D^− rats and cultured for 2 days in the presence or absence of PT-100. […] DPPIV-like activity is presented as velocity and the percent of protease activity inhibition with PT-100 is calculated relative to a ‘no treatment’ control.
# [2] = test system: Fischer D+ and D− rat bone marrow stromal cells; experiment: IL-6 release from rat bone marrow stromal cells (ELISA); format: cell-based; settings: 2 days incubation
# Experimental: as §1, §2
# Establishment of adherent bone marrow stromal cell cultures. 1-2×10^7 cells were seeded into a T25 flask (Coming) containing 10 mls of LTC medium and incubated at 37° C. in 100% humidified 5% CO2 in air. After 1 week half the medium was exchanged for fresh medium and incubated for approximately 1 week until a confluent cell layer formed. PT-100 incubation. The adherent stromal cells were removed from the flask by trypsin-EDTA (Life Technologies, Inc.) digestion, washed once with sterile PBS and resuspended in long term culture medium at 1×10^5/ml. […]
# Similar levels of IL-6 are secreted from bone marrow stromal cells of D^+ and D^− rats. […] IL-6 levels in the culture supernatant were determined by ELISA.
# [3] = test system: FAP-α+ CD26− primary human stromal cells; experiment: G-CSF release from FAP-α+ CD26− primary human stromal cells (ELISA); format: cell-based; settings: human bone marrow cells lacking CD26 but expressing FAP-α, 2 days incubation
# Experimental: (§3) Cell source. Bone marrow was kindly donated by New England Medical Center, Boston, Mass. and Dr. Richard Benjamin from Brigham and Women's Hospital in Boston, Mass. Mononuclear cells were purified over Ficoll and used immediately or frozen in liquid nitrogen.
# (§4) Establishment of human stromal feeder layer. 2 to 4×10^7 human bone marrow mononuclear cells were seeded into a T75 flask (Corning) containing 20 mls of LTC medium and incubated. at 37° C. in 100% humidified 5% CO2 in air. After 1 week half the medium was exchanged for fresh medium and incubated for approximately 1 week when a confluent cell layer formed.
# ELISA of human cells. Cultured supernatants were assayed for a high sensitivity ELISA (R+D Systems).
# PT-100 incubation, supernatant collection and DPPIV-like activity assay for human and rat cells were carried out in an identical manner.
# The DPPIV-like activity associated with the intact cells was inhibited by-PT-100. Stromal cells were established from the bone marrow of a human volunteer as described in the materials and methods. The stromal cells were incubated for 2 days in the presence or absence of the indicated concentrations of PT-100 and cultured supernatants were assayed for IL-6 or DPPIV-like activity as described in Materials and Methods.
# [4] = test system: DPPIV-like activity of FAP-α+ CD26− primary human stromal cells; experiment: DPPIV-like activity assay on FAP-α+ CD26− primary human stromal cells; format: cell-based; settings: human stromal cells lacking CD26 but expressing FAP-α, 2 days incubation
# Experimental: DPPIV-like activity assay. Following the removal of supernatant from the stromal cultures, the adherent cells were washed with D-PBS and assayed for DPPIV-like activity. The fluorogenic substrate Ala-Pro-AFC was diluted in DPPIV buffer (50 mM Hepes, 140 mM NaCl) from the original stock of 10 mM (stored at −20° C. as a solution in dimethyl-formamide) to 1 mM, directly before the assay. 30 μl of the 1 mM stock was added per ml of buffer and the stromal cells were incubated for 10 minutes with 1 ml per well of the diluted substrate. The reaction was stopped by removing the substrate solution from each well and measured in the fluorescence spectrophotometer or stored −20° C. Activity was measured using an excitation wavelength of 400 nm and emission wavelength of 505 nm.
# as §3
# as §4, with “formed. […]” for “formed.”
# B16-F0 tumor = experiment: Established subcutaneous B16 melanoma in C57BL/6 mice; format: in vivo, mouse
# Experimental: The highly metastic B16-F0 tumor was implanted subcutaneously (s.c.) in C57BL/6 mice. PT-100 administration was started on day 8 when palpable tumors were apparent. Tumor volumes were measured on days 8, 12, and 15. […] In the experiment of FIG. 4 each experimental group contained 10 animals.
# WEHI-164 fibrosarcoma = experiment: Subcutaneous WEHI-164 fibrosarcoma in mice; format: in vivo, mouse
# Experimental: Thus in the experiment of FIG. 5, the large reductions in tumor volume recorded were in part due to the absence of a palpable tumor in some of the mice:in each of the PT-100 treated groups (10 replicate animals per group). For example, in the mice treated with the 5 μg dose of PT-100 administered b.i.d., 6 of the animals were completely free of a detectable s.c. tumor. PT-100 treatment of the mice in the experimental groups was stopped on day 20, the day when the data of FIG. 5 were recorded.
# [5] = administration started on day 2 after implantation
structure (smiles),measurement,setting,value
"CC(C)[C@H](N)C(=O)N1CCC[C@H]1B(O)O [PT-100, valine-proline-boronic acid]",% Inhibition by 10^−6 M PT-100 of DPPIV-like activity,"[1]; Fischer D− (CD26 negative) rat BM stromal cells, 2 days culture, 10^−6 M, relative to no treatment control",86.4% and 73.8% and 62.1%
same,Inhibition of DPPIV-like activity (in words),[1]; rat bone marrow stromal cells which lack CD26,potently inhibited
same,IL-6 levels in culture supernatant,[2],enhanced
same,G-CSF release,[3],potently stimulated
same,Inhibition of DPPIV-like activity associated with the intact cells,[4],inhibited
same,Tumor growth,"B16-F0 tumor; 160 μg administered for two days, day 8 and day 9",effective in suppressing tumor growth
same,Tumor growth compared with saline treated control mice,"B16-F0 tumor; 10 and 40 μg p.o. b.i.d. from day 8 to 14, tumor volumes days 8, 12, 15",markedly inhibited
same,Growth of B16 melanoma,"B16-F0 tumor; administered orally, mice",significantly inhibits
same,Animals completely free of a detectable s.c. tumor,"WEHI-164 fibrosarcoma; 5 μg b.i.d., started day 2, recorded day 20, 10 animals per group",6 animals
same,Growth of WEHI-164 fibrosarcoma,"WEHI-164 fibrosarcoma; administered orally, mice",significantly inhibits
same,Tumor growth,WEHI-164 fibrosarcoma; [5],tumor growth inhibited
same,Tumor necrosis and regression,WEHI-164 fibrosarcoma; [5],a proportion of the tumors also became necrotic and apparently regressed completely
same,Growth of an established s.c. tumor,WEHI-164 fibrosarcoma; established s.c. WEHI-164 tumor,could suppress the growth
same,Tumor recurrence in mice recorded as tumor-free on day 20,"WEHI-164 fibrosarcoma; treatment stopped on day 20, monitored up to day 30 after implantation",none of the mice recorded as tumor-free on day 20 has developed a detectable s.c. tumor
